*1 amine or outer side, *2 acyl side, *3 side chain or, on linkers, in order; H or OH if unused. Where a SMILES comes first, the peptide text is derived from it. Bridges are numbered along the chain shown (N, C = ends). [ ]: non-standard residue; d: D form. The star is where a group is joined. Phe(3-OMe,4-CONHMe) = CNC(=O)c1ccc(C[C@H](N)C(=O)O)cc1OC; X5 = O=C([C@H](CCC[C@@H]1CC(F)(F)CN1)N[*:1])[*:2]; X13 = O=C(C1CCCCC1)[C@H](CC(=O)[*:2])N[*:1]; Pro(4,4-F2)ψ(CH2) = FC1(F)CN[C@H](C*)C1; Ethyl(2-morpholino) = C1CN(CC*)CCO1; NMeF = CN[C@@H](Cc1ccccc1)C(=O)O; NMeGABA = CN(CCCC(=O)[*:2])[*:1]; NMeI = CC[C@H](C)[C@H](NC)C(=O)O; CH2CH(OH)CF3 = OC(C*)C(F)(F)F; NMeL = CN[C@@H](CC(C)C)C(=O)O; Butyl(3R-OH) = C[C@@H](O)CC*; NMeV = CN[C@H](C(=O)O)C(C)C; NMeAbu = CC[C@H](NC)C(=O)O; NMeA = CN[C@@H](C)C(=O)O; Piperidide = C1CCN(*)CC1; NBuGly = CCCCNCC(=O)O; Sar = CNCC(=O)O; tBu = CC(C)(C)*
Assay: Membrane permeability test of cyclic peptides (Caco-2, modified/improved method of WO 2018/124162)
Details: human
[1] = Caco-2, Caco-2 (cm/sec), membrane permeability of cyclic peptides, Caco-2
[2] = Caco-2, Caco-2 (membrane permeability), Table 10, cyclic peptides containing Ser(S-4-F2-Pyrro-Me) (G) or Nva(2-R-4-F2-Pyrro) (H)

Structure (SMILES)	Papp [1]	Papp [2]	further results
CC[C@H](C)[C@@H]1NC(=O)[C@H](CC(C)C)N(C)C(=O)CCCN(C)C(=O)C[C@@H](C(=O)N2CCCCC2)NC(=O)[C@H](CC(C)C)N(C)C(=O)[C@H](CC(C)C)N(C)C(=O)[C@H](COCCN2CCOCC2)NC(=O)[C@H](CC(C)C)N(C)C(=O)[C@H](COC(C)(C)C)NC(=O)[C@H](CC)N(C)C(=O)[C@H](Cc2ccccc2)N(C)C1=O [pd485] ([NMeGABA][NMeL]I[NMeF][NMeAbu]S(tBu)[NMeL]S(Ethyl(2-morpholino))[NMeL][NMeL]D-Piperidide; lactam N-11)			Papp (Caco-2, Caco-2, Papp, membrane permeability, cyclic peptides comprising MeAbu(pip-4-F2), MeAbu(Mor), Ser(Et-2-Mor), MeAbu(pip-3-F2) or Abu(5-Oxo-Odz) (Table 29)): 1.2 ×10⁻⁶ cm/s
CCCCN1CC(=O)N(C)[C@@H](CC(C)C)C(=O)N[C@H](C(=O)N2CCCCC2)CC(=O)N(C)[C@@H](C(C)C)C(=O)N[C@@H](CC(C)C)C(=O)N(C)[C@@H](CC(C)C)C(=O)N(C)[C@@H](Cc2ccccc2)C(=O)N[C@@H](COCC[C@@H](C)O)C(=O)N(C)[C@@H](Cc2ccccc2)C(=O)N(C)[C@@H](C(C)C)C(=O)N[C@@H]([C@@H](C)O)C1=O [AP116] ([NMeV]L[NMeL][NMeF]S(Butyl(3R-OH))[NMeF][NMeV]T[NBuGly][NMeL]D-Piperidide; lactam N-11)	0.89 ×10⁻⁶ cm/s		
CC(C)C[C@H]1C(=O)N[C@@H](COC(C)(C)C)C(=O)N(C)[C@@H](Cc2ccccc2)C(=O)N(C)[C@@H](CC(C)C)C(=O)N[C@H](C(=O)C2CCCCC2)CC(=O)N[C@H](C(C)C)C(=O)N(C)[C@@H](Cc2ccccc2)C(=O)N[C@@H](COCC(O)C(F)(F)F)C(=O)N(C)[C@@H](CC(C)C)C(=O)N[C@@H](C(C)C)C(=O)N(C)CC(=O)N1C (stereo partly drawn) [Compound D11] (cyclo([NMeF][NMeL][X13][dV][NMeF]S(CH2CH(OH)CF3)[NMeL]V[Sar][NMeL]S(tBu)))			Papp (Caco-2, Caco-2 (membrane permeability), Table 6, cyclic peptides containing Ser(1-CF3-EtOH) (C) or Hnl(7-F3-6-OH) (D)): 0.21 ×10⁻⁶ cm/s
CC[C@H]1C(=O)N(C)[C@@H](Cc2ccccc2)C(=O)N[C@@H](CC(C)C)C(=O)N(C)[C@@H](CC(C)C)C(=O)N(C)[C@@H](CC(C)C)C(=O)N[C@@H](COC[C@@H]2CC(F)(F)CN2)C(=O)N(C)CC(=O)N(C)[C@@H](CC(C)C)C(=O)N[C@H](C(=O)N2CCCCC2)CC(=O)N(C)[C@@H](C)C(=O)N[C@@H](CC(C)C)C(=O)N1C [Compound G10] ([NMeA]L[NMeAbu][NMeF]L[NMeL][NMeL]S(Pro(4,4-F2)ψ(CH2))[Sar][NMeL]D-Piperidide; lactam N-11)		1.1 ×10⁻⁶ cm/s	
CC(C)C[C@@H]1NC(=O)[C@H](C(C)C)N(C)C(=O)C[C@@H](C(=O)N2CCCCC2)NC(=O)[C@H](CC(C)C)N(C)C(=O)CN(C)C(=O)[C@H]([C@@H](C)O)NC(=O)[C@H](C(C)C)N(C)C(=O)[C@H](Cc2ccccc2)N(C)C(=O)[C@H](COCC[C@@H](C)O)NC(=O)[C@H](Cc2ccccc2)N(C)C(=O)[C@H](CC(C)C)N(C)C1=O [AP113] ([NMeV]L[NMeL][NMeF]S(Butyl(3R-OH))[NMeF][NMeV]T[Sar][NMeL]D-Piperidide; lactam N-11)	1.7 ×10⁻⁶ cm/s		
CCCCN1CC(=O)N(C)[C@@H](Cc2ccccc2)C(=O)N(C)[C@@H](CC(C)C)C(=O)N[C@@H](C(C)C)C(=O)N(C)[C@@H](CC(C)C)C(=O)N[C@H](C(=O)N2CCCCC2)CC(=O)N(C)CC(=O)N(C)[C@@H](C(C)C)C(=O)N[C@@H](CCC[C@@H]2CC(F)(F)CN2)C(=O)N(C)[C@@H](CC(C)C)C(=O)N[C@@H]([C@@H](C)O)C1=O [Compound H06] ([Sar][NMeV][X5][NMeL]T[NBuGly][NMeF][NMeL]V[NMeL]D-Piperidide; lactam N-11)		0.27 ×10⁻⁶ cm/s	
CC[C@H](C)[C@@H]1NC(=O)[C@H](Cc2ccccc2)N(C)C(=O)CN(C)C(=O)C[C@@H](C(=O)N2CCCCC2)NC(=O)[C@H](C(C)C)N(C)C(=O)[C@H](COC(C)(C)C)NC(=O)[C@H](CC(C)C)N(C)C(=O)[C@H](Cc2ccccc2)N(C)C(=O)CN(C)C(=O)[C@H]([C@@H](C)O)NC(=O)[C@H](Cc2ccccc2)N(C)C1=O [pd205] ([Sar][NMeF]I[NMeF]T[Sar][NMeF][NMeL]S(tBu)[NMeV]D-Piperidide; lactam N-11)			Papp (Caco-2, Caco-2 (cm/sec), Table 36, Papp, sequences having Papp ≥ 1.0 × 10^−6 at ARC = 3): 1.8 ×10⁻⁶ cm/s
CC[C@H](C)[C@@H]1NC(=O)[C@H](CC(C)C)N(C)C(=O)CCCN(C)C(=O)C[C@@H](C(=O)N2CCCCC2)NC(=O)[C@H](CC(C)C)N(C)C(=O)[C@H](CC(C)C)N(C)C(=O)[C@H]([C@@H](C)O)NC(=O)[C@H](CC(C)C)N(C)C(=O)[C@H](COC[C@@H]2CC(F)(F)CN2)NC(=O)[C@H](CC(C)C)N(C)C(=O)[C@H](Cc2ccccc2)N(C)C1=O [Compound G03] ([NMeGABA][NMeL]I[NMeF][NMeL]S(Pro(4,4-F2)ψ(CH2))[NMeL]T[NMeL][NMeL]D-Piperidide; lactam N-11)		0.23 ×10⁻⁶ cm/s	
CC[C@H](C)[C@H]1C(=O)N[C@@H]([C@@H](C)O)C(=O)N(C)CC(=O)N(C)[C@@H](CC)C(=O)N[C@H](C(=O)N2CCCCC2)CC(=O)N(C)[C@@H](CC(C)C)C(=O)N[C@@H](Cc2ccc(C(=O)NC)c(OC)c2)C(=O)N(C)[C@@H](CC(C)C)C(=O)N(C)[C@@H](Cc2ccccc2)C(=O)N[C@@H](CC(C)C)C(=O)N(C)[C@@H](CC(C)C)C(=O)N1C [AP31] ([NMeL][Phe(3-OMe,4-CONHMe)][NMeL][NMeF]L[NMeL][NMeI]T[Sar][NMeAbu]D-Piperidide; lactam N-11)	0.52 ×10⁻⁶ cm/s		
